We go through 13 molecules from patent US10300031B2, “Pharmaceutical compositions for treating chronic pain and pain associated with neuropathy” (priority 2007, dated 2019).

Several values for one entry are separate records, joined by “and”; a condition that tells them apart may be missing. Equal entries are not always repeated. Structures can show the parent of a compound that is named as a salt. Where two headings read alike, the source gives them in different places.

One series deals with Diabetic Neuropathy. Conditions: Dose mg/day: dextromethorphan hydrobromide 400-480, tramadol hydrochloride 400, gabapentin 3600; cited from earlier work.
The next series relates to Fibromyalgia. Conditions: Dose mg/day: dextromethorphan hydrobromide 400-480, tramadol hydrochloride 400, gabapentin 3600; cited from earlier work.
For series [1] the following is noted: cited from earlier work; for accumulation during multiple dose treatment: multiple dose treatment with tramadol.
For another series, the target named is CYP2C19 (Homo sapiens, UniProt P33261). Conditions: gabapentin concentrations up to 171 μg/mL; cited from earlier work.
The subject of series [2] is diabetic neuropathy pain. The series is described as follows: Combination therapy in patients with diabetic neuropathy (Table 2, testimonies). As to conditions: for Pain Relief (percent of reduction in pain), Diabetic Neuropathy: TLI-1026 twice daily (N = 5), single agents mg/day: dextromethorphan 70, tramadol 70, gabapentin 180; for pain relief (patient or physician testimony): diabetic neuropathy patients; for side effects / tolerability: two patients with diabetic peripheral polyneuropathy.

The next series concerns the target CYP3A4 (Homo sapiens, UniProt P08684). As to conditions: gabapentin concentrations up to 171 μg/mL; cited from earlier work.
A further series concerns the target CYP1A2 (Homo sapiens, UniProt P05177). As to conditions: gabapentin concentrations up to 171 μg/mL; cited from earlier work.
The target in a further series is CYP2E1 (Homo sapiens, UniProt P05181). Conditions: gabapentin concentrations up to 171 μg/mL; cited from earlier work.
The conditions of series [3]: cited from earlier work.
The test system of a further series is fibromyalgia pain. The series is described as follows: Combination therapy in patients with fibromyalgia (Table 2, testimonies). It is filed as in vivo, human. Conditions: for Pain Relief (percent of reduction in pain), Fibromyalgia: TLI-1026 twice daily (N = 5), single agents mg/day: dextromethorphan 70, tramadol 70, gabapentin 180.
For series [4], the system named is pain in diabetic neuropathy and fibromyalgia patients. The series is described as follows: Pooled statements on pain reduction in diabetic neuropathy and fibromyalgia patients. It is filed as in vivo, human.
The target of a further series is CYP2C9 (Homo sapiens, UniProt P11712). Conditions: gabapentin concentrations up to 171 μg/mL; cited from earlier work.
The target in a further series is CYP2D6 (Homo sapiens, UniProt P10635). Conditions: gabapentin concentrations up to 171 μg/mL; cited from earlier work.
The subject of series [5] is pain (arthritis, back, cancer neuropathy, tooth, lumbar, cervical spondyolosis, knee). Conditions: in vivo.
Series [6] deals with transient K+ channels in hippocampal neurons. As to conditions: cited from earlier work.
The test system of series [7] is patients with fibromyalgia. As to conditions: fibromyalgia trials, cited from earlier work.
In series [8] the test system is patients with diabetic peripheral neuropathy. As to conditions: diabetic peripheral neuropathy trials; cited from earlier work.
In a further series the test system is pain score in patients. Conditions: cited from earlier work.
Series [9] deals with diabetic neuropathy pain. Conditions: human, in vivo.
The next series has as its target μ-opiate receptors (Homo sapiens, UniProt P35372). As to conditions: cited from earlier work.
The test system of series [10] is Na+ currents in adrenal chromaffin cells. As to conditions: read-out: IC50, peak Na+ currents; cited from earlier work.
Series [11] deals with painful diabetic neuropathy. As to conditions: oral amitriptyline; cited from earlier work.
Another series has as its target hH1 Na+ channels (Homo sapiens, UniProt Q14524). Conditions: cited from earlier work; for IC50: 0.1-100 μM.
A further series concerns postherpetic neuralgia. As to conditions: oral amitriptyline; cited from earlier work.
The next series deals with cardiac Na+ channels (Homo sapiens, UniProt Q14524). As to conditions: cited from earlier work.
For series [12] the following is noted: 0.2M sodium chloride; cited from earlier work.
Series [13] concerns NF-κ-B activation in human myeloid ML-1a cells. As to conditions: pretreatment of ML-1a cells; dose- and time-dependent; cited from earlier work.
The conditions of series [14]: 90 g cream (0.025% capsaicin) per week, 100% absorbed, 50 kg person; cited from earlier work.
For series [15] the following is noted: oral dosing of rats, after 3 hours; cited from earlier work.
The conditions of series [16]: i.v. administration, rats; cited from earlier work.

hH1 Na+ channels, sequence (Q14524 whole entry): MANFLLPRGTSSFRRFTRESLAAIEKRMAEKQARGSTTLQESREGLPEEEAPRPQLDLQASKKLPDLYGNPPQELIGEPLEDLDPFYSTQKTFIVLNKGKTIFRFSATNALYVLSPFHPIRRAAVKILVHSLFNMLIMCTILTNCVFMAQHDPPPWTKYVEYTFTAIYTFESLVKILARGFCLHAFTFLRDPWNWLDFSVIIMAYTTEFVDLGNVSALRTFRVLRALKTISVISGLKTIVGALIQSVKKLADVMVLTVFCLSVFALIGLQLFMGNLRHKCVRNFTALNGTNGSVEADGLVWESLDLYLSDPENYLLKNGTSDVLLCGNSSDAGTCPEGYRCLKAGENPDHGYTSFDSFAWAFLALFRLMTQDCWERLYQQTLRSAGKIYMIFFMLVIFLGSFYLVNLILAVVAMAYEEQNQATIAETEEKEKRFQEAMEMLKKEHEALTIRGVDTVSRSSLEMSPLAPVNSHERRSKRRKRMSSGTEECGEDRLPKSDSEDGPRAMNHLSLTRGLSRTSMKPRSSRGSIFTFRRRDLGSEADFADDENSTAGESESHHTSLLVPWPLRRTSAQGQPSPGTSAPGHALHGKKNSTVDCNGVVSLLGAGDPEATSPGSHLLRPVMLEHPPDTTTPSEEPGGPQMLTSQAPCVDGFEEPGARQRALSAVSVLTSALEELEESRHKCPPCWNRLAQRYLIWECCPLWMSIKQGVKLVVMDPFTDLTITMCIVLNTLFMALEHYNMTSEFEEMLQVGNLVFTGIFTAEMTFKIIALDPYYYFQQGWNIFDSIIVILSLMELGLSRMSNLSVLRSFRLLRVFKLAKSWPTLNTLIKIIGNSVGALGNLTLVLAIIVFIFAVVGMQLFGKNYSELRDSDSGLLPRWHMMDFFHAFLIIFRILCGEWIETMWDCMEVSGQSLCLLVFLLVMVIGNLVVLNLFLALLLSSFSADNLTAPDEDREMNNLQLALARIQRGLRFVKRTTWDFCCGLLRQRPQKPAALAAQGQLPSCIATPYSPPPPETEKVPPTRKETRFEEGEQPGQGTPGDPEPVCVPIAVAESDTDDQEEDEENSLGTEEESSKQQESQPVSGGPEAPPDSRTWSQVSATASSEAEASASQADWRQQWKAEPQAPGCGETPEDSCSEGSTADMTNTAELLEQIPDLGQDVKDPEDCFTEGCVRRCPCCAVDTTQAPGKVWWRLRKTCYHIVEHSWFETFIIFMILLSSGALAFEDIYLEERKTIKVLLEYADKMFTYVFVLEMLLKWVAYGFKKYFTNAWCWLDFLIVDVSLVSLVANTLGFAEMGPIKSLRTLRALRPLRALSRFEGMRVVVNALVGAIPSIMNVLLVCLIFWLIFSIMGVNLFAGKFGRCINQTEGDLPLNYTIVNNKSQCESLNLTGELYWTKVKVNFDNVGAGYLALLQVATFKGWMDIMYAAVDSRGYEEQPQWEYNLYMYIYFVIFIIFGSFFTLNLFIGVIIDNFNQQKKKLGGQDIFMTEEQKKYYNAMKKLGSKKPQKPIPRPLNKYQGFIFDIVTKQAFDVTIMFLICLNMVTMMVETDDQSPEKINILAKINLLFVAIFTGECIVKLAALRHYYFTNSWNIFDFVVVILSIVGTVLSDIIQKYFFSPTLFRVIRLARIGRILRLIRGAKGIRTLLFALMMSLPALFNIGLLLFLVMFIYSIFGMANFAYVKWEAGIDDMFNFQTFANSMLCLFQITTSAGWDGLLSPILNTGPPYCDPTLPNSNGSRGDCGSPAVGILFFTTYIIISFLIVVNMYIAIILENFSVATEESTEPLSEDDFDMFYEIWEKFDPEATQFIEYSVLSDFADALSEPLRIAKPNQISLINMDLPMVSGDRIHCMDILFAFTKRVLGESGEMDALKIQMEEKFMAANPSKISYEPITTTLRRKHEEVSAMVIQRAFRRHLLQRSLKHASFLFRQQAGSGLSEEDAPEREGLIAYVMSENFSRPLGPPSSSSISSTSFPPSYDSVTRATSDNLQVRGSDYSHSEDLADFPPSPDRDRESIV
μ-opiate receptors, sequence (P35372 whole entry): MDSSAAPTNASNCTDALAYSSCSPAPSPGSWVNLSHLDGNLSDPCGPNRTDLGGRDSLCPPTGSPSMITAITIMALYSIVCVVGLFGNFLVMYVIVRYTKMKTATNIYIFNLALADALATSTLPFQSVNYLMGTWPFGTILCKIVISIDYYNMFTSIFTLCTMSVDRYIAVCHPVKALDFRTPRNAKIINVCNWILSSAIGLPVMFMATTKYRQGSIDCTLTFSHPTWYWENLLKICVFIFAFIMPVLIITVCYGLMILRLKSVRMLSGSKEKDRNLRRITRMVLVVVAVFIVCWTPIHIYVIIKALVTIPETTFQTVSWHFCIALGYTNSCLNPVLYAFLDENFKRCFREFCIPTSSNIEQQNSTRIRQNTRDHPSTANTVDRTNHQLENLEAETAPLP
cardiac Na+ channels, sequence (Q14524 whole entry): as the sequence (Q14524 whole entry) above
CYP3A4, sequence (P08684 whole entry): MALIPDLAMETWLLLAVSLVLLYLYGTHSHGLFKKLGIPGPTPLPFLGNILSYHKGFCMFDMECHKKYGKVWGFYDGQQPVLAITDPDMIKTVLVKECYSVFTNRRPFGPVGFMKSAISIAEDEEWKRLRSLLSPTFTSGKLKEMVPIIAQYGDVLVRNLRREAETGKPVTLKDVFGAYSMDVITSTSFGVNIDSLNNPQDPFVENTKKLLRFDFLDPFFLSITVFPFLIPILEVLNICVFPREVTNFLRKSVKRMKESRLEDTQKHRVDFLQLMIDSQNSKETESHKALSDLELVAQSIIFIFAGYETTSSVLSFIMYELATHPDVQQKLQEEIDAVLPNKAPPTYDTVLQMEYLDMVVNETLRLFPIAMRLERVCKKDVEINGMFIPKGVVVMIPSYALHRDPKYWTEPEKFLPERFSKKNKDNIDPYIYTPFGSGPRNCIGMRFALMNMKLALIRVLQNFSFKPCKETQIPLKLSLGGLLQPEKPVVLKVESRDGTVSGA

On to `COc1ccc2c(c1)[C@]13CCCC[C@@H]1[C@H](C2)N(C)CC3` [Dextromethorphan Hydrobromide], for which the “Pain Relief (percent of reduction in pain), Diabetic Neuropathy” value with Diabetic Neuropathy was <50 (Sang 2002) percent and <50%. In addition, the “Pain Relief (percent of reduction in pain), Fibromyalgia” value in the series on Fibromyalgia is <40 (Staud 2005) percent.
For `CN(C)C[C@H]1CCCC[C@]1(O)c1cccc(O)c1` [M1 derivative], the half-life in [1] (after a single oral dose of 100 mg) is 9 h. Moreover, the “accumulation during multiple dose treatment” value in series [1] is “approximately 2 fold”.
Consider `NCC1(CC(=O)O)CCCCC1` [Gabapentin], for which, on CYP2C19, the “inhibition of CYP2C19” value is recorded as “No inhibition”. Further, the “Pain Relief (percent of reduction in pain), Diabetic Neuropathy” value in the series on diabetic neuropathy pain [2] is below 10%; in the series with Diabetic Neuropathy, <50 (Marchettini percent and <50%. The “pain relief (patient or physician testimony)” value in the series with diabetic neuropathy pain [2] (listed as Neurontin) is on record as “no substantial pain relief”; with diabetic neuropathy pain [2] (listed as Nurontin), “only curb the pain”. For the same molecule, in the series with diabetic neuropathy pain [2], the “side effects / tolerability” value was “substantial, negative side effects”. Besides, the “inhibition of CYP3A4” value on CYP3A4 is “No inhibition”. Also, the “inhibition of CYP1A2” value on CYP1A2 was “No inhibition”. Also, the “inhibition of CYP2E1” value on CYP2E1 was “No inhibition”. Also, the bioavailability entry in [3] (900 mg/day given in 3 divided doses) is recorded as “approximately 60%”; in [3] (1200 mg/day given in 3 divided doses), around 47%; in [3] (2400 mg/day given in 3 divided doses), around 34%; in series [3] (3600 mg/day given in 3 divided doses) it was around 33%; in [3] (4800 mg/day given in 3 divided doses) it was around 27%. In addition, in series [3] (food effect), the “increase in AUC and Cmax with food” value was 14%. For the same molecule, in [3] (in vivo), the “bound to plasma protein” value is given as “Less than 3%”. Moreover, the “steady-state predose (Cmin) concentration in cerebrospinal fluid, % of corresponding plasma concentrations” value in series [3] (patients with epilepsy) is reported as “approximately 20%”. For the same molecule, the entries for the “Pain Relief (percent of reduction in pain), Fibromyalgia” value in the series with fibromyalgia pain and in the series with Fibromyalgia were below 10% and <50 (Lesley 2007) percent, respectively. Also, the “relief from pain with prior therapy (physician testimony)” value in series [4] (up to 1600 mg per day, patients with diabetic neuropathy or fibromyalgia) was “partial and marginal relief”. Moreover, the “inhibition of CYP2C9” value at CYP2C9 was “No inhibition”. In addition, the “inhibition of CYP2D6” value at CYP2D6 was “No inhibition”.
In the case of `CCCC(C)(COC(N)=O)COC(=O)NC(C)C` (stereo not shown) [Soma, Carisoprodol], in series [5], the “pain relief (testimony)” value was “only seemed to mask the pain” and the side effects result was “quite drowsy”.
As to `CN(C)CCCN1c2ccccc2CCc2ccccc21` [imipramine], the IC50 in series [6] was around 6 µM.
Regarding `CC(C)C[C@H](CN)CC(=O)O` [pregabalin], the “patients who discontinued prematurely due to adverse reactions” value is 19% in series [7] (150-600 mg/day) and 9% in series [8]. For the same molecule, the “discontinuation due to dizziness” value was 6% in series [7] and 3% in series [8]. The “discontinuation due to somnolence” value was 3% in [7] and 2% in series [8]. Besides, the “withdrawal due to each of fatigue, headache, balance disorder, weight increased” value in [7] was “approximately 1%”. In series [8], the “withdrawal due to each of asthenia, confusion, peripheral edema” value is reported as “approximately 1%”. For the same molecule, the “endpoint mean pain score and proportion with at least a 50% reduction in pain score” value is “statistically significantly improved” with pain score in patients (8-week study, 50 and 100 mg three times a day); “statistically significantly improved” in the series on pain score in patients (8-week study, 100 or 200 mg three times a day, doses assigned by creatinine clearance); “statistically significantly improved” in the series on pain score in patients (13-week study, 75, 150, 300 mg twice daily, creatinine clearance greater than 60 mL/min, all doses); “statistically significantly improved” in the series with pain score in patients (100 and 200 mg three times a day).
As to `COc1ccc2c(c1)[C@]13CCCC[C@@H]1[C@H](C2)N(C)CC3`, in the series on diabetic neuropathy pain [2], the “Pain Relief (percent of reduction in pain), Diabetic Neuropathy” value is on record as below 10%. In addition, the “Pain Relief (percent of reduction in pain), Fibromyalgia” value with fibromyalgia pain is listed as below 10%.
Consider `CC(C)C[C@H](CN)CC(=O)O` [Lyrica], for which, in the series on diabetic neuropathy pain [2], the “pain relief (patient or physician testimony)” value is on record as “only minimal resolution of symptoms” and the “side effects / tolerability” value was “substantial, negative side effects”.
As to `CN(C)CCC=C1c2ccccc2CCc2ccccc21` [Elavil], the “pain relief (patient or physician testimony)” value in the series with diabetic neuropathy pain [2] is reported as “no substantial pain relief”. Further, in the series with diabetic neuropathy pain [9], the “side effects / tolerability” value is given as “substantial, negative side effects”.
In the case of `COc1cccc(C2(O)CCCCC2CN(C)C)c1` (single isomer, unassigned) [Tramadol Hydrochloride, (1R,2R or 1S,2S)-(dimethylaminomethyl)-1-(3-methoxyphenyl)-cyclohexanol], in the series with diabetic neuropathy pain [2], the “Pain Relief (percent of reduction in pain), Diabetic Neuropathy” value was below 10%. Moreover, on μ-opiate receptors, the “affinity for μ-opiate receptors relative to dextromethorphan” value is recorded as “equivalent”; the “affinity for μ-opiate receptors, fold less than codeine” value is given as 10 fold; the “affinity for μ-opiate receptors, fold less than d-propoxyphene” value is listed as 100 fold; the “affinity for μ-opiate receptors, fold less than morphine” value is 6,000 fold. For the same molecule, the “Pain Relief (percent of reduction in pain), Diabetic Neuropathy” value in the series with Diabetic Neuropathy was <35 (Sindrup 1999) percent and <35%. Besides, the “Pain Relief (percent of reduction in pain), Fibromyalgia” value with fibromyalgia pain is on record as below 10%. For the same molecule, in the series on fibromyalgia pain (fibromyalgia patients), the “pain relief (patient or physician testimony)” value was “moderate relief”. The “time to peak serum concentrations” value in series [1] (after oral administration) was at most 2 h. For the same molecule, the “accumulation during multiple dose treatment” value in series [1] is “approximately 2 fold”. Besides, the “duration of the analgesic effect” value in series [1] (single oral dose of tramadol 100 mg) is recorded as “about 6 hours”. Besides, in the series with Fibromyalgia, the “Pain Relief (percent of reduction in pain), Fibromyalgia” value is reported as <30 (Biasi 1998; percent. Moreover, the reduction in pain in series [4] (400 mg of tramadol per day, patients with diabetic neuropathy and fibromyalgia) is on record as 30-40%.
As to `CN(C)CCC=C1c2ccccc2CCc2ccccc21` [amitriptyline], the IC50 in [10] was 20.2 µM; on hH1 Na+ channels (inactivated channels, n=7, read-out: IC50, tonic block of inactivated hH1 channels), 0.58 ± 0.03 µM; on hH1 Na+ channels (resting channels, n=9, read-out: IC50, tonic block of resting hH1 channels) it was 24.8 ± 2 µM. Also, the “share of patients with a good or moderate response” value in series [11] is listed as “three-quarters”; in the series with postherpetic neuralgia it was “about two-thirds”. Further, the “use-dependent block during repetitive pulses” value on hH1 Na+ channels (1 μM, 5 Hz) is listed as around 55%. Besides, at cardiac Na+ channels (0.4 μM, repetitive pulses at a frequency of 5 Hz, cardiac myocytes), the “use-dependent block of Na+ current” value is listed as “profound use-dependent block”. On cardiac Na+ channels (cardiac Na+ channels), the “time constant of recovery from the use-dependent block” value is 13.6 s.
On to `COc1ccc(C(CN(C)C)C2(O)CCCCC2)cc1` (racemic) [Venlafaxine hydrochloride, (R/S)-1-[2-(dimethylamino)-1-(4-methoxyphenyl)ethyl]cyclohexanol], for which the “octanol:water partition coefficient” value in [12] is 0.43.
For the molecule `COc1cc(CNC(=O)CCCCC=CC(C)C)ccc1O` [capsaicin, 8-methyl-N-vanillyl-6-nonenamide], in series [13], the “effect on TNF-mediated activation of NF-κ-B” value is “blocked TNF-mediated activation of NF-κ-B”. Also, the estimated daily exposure in [14] was 0.064 mg/kg. Besides, the “absorption in the jejunum” value in [15] is listed as 85%. In [16], the “time to distribution to brain, spinal cord, liver and blood” value was at most 20 min.

A word on the half-life: it is how long it takes for the measured level to halve. For orientation: bioavailability means the share of a dose that reaches the circulation, judged against a reference dose that is usually intravenous. A word on the IC50: it is the concentration that gives 50% inhibition.
